US20100173835A1, “Peptides for Treatment of Obesity” (Novo Nordisk A/S, priority 2008, published 2010)
Values after ≈ are worked out from the molar mass of the structure shown. Like-named read-outs stand apart in the source and are kept apart here. Blank lines part the entries; values can stand above or below the compound they belong to. *1 amine or outer side, *2 acyl side, *3 side chain or, on linkers, in order; H or OH if unused. Where a SMILES comes first, the peptide text is derived from it. Bridges are numbered along the chain shown (N, C = ends). [ ]: non-standard residue; d: D form. The star is where a group is joined. Palmitoyl(16-(5-tetrazolyl)) = O=C(CCCCCCCCCCCCCCCc1nnn[nH]1)*; C18 diacid = O=C(O)CCCCCCCCCCCCCCCCC(=O)*; γGlu = O=C(O)[C@H](CCC(=O)[*:2])N[*:1]; Hyp = O=C(O)[C@@H]1C[C@@H](O)CN1; NTA = O=C(O)CN(CC(=O)O)CC(=O)*; Nle = CCCC[C@H](N)C(=O)O; Dap = NC[C@H](N)C(=O)O; AEEA = NCCOCCOCC(=O)O

What was measured:
[1] = Solubility data of compounds in water over the pH range; type: physicochemical
human MC4 receptor = biological target: T1, human MC4 receptor (Homo sapiens, UniProt P32245); assay: Assay (V) Melanocortin Receptor 4 (MC4) binding assay; details: 125NDP-α-MSH binding, BHK cell membranes; read-out: Assay (V) MC4 [Ki]
T1 construct: expressed in transfected cells
In short: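 BHK membranes stably expressing human MC4 receptor were incubated with ^125NDP-α-MSH (≈79 pM final) and compound for 2 h at 25 °C, pH 7.0 HEPES buffer with HSA or ovalbumin. Filter-bound radioactivity was gamma counted. Binding curves were fitted by non-linear regression.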

MC1 receptor = biological target: T2, MC1 receptor (Homo sapiens, UniProt Q01726); assay: Assay (IV) Melanocortin Receptor 1 (MC1) binding assay; details: 125NDP-α-MSH binding, BHK cell membranes; read-out: Assay (IV) MC1 Ki
T2 construct: expressed in transfected cells
In short: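 Competition binding used BHK cell membranes stably expressing MC1 (25 μg/ml) with 22 pM final ^125NDP-α-MSH in 25 mM HEPES pH 7.4, CaCl2, MgSO4, EDTA, 0.1% HSA (or ovalbumin), 0.005% Tween 20. After 90 min at 30° C., bound radioligand was filtered and counted, with binding curves fitted by non-linear regression.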

T2 sequence (Q01726 whole entry): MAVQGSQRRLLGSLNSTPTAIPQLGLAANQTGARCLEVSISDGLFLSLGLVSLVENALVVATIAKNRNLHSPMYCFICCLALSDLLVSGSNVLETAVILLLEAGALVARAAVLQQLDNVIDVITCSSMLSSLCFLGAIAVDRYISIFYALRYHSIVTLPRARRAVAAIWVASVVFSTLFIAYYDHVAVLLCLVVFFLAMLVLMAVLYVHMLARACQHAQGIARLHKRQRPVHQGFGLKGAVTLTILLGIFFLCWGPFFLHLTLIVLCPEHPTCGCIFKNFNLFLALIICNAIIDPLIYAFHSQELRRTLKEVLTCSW
T1 sequence (P32245 whole entry): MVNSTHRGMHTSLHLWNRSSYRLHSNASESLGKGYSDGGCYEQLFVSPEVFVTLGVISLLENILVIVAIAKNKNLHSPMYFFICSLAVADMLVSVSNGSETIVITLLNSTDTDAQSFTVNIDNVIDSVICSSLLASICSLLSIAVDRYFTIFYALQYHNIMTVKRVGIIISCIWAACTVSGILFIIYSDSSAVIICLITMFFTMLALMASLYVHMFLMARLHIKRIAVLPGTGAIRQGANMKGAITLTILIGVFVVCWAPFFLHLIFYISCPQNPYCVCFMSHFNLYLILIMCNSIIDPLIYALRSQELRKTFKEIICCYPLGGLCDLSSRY

SMILES: CCCC[C@H](NC(=O)[C@H](CNC(=O)CN(CC(=O)O)CC(=O)O)NC(=O)[C@H](Cc1c[nH]cn1)NC(=O)[C@H](CCC(N)=O)NC(=O)[C@H](CO)NC(=O)[C@H](CCC(=O)O)NC(=O)COCCOCCNC(=O)CCCCCCCCCCCCCCCc1nnn[nH]1)C(=O)N[C@H]1CCC(=O)NCCCC[C@@H](C(N)=O)NC(=O)[C@H](Cc2c[nH]c3ccccc23)NC(=O)[C@H](CCCNC(=N)N)NC(=O)[C@@H](Cc2ccccc2)NC(=O)[C@@H]2C[C@@H](O)CN2C1=O [Example 17, (2-{2-[16-(Tetrazol-5-yl)hexadecanoylamino]ethoxy}ethoxy)acetyl-Glu-Ser-Gln-His-Dap(BCMA)-Nle-c[Glu-Hyp-D-Phe-Arg-Trp-Lys]-NH2] ({Palmitoyl(16-(5-tetrazolyl))-AEEA}-ESQH[Dap](NTA)[Nle]E[Hyp][dF]RWK-NH2; lactam 7-12)
solubility at 3 days ([1]; pH 3.32, pH 3.32, read-out: Conc (solubility in water)): 34 µM (≈ 73.6 µg/mL) | solubility at 3 days ([1]; pH 3.76, pH 3.76, read-out: Conc (solubility in water)): 25 µM (≈ 54.1 µg/mL) | solubility at 3 days ([1]; pH 4.31, pH 4.31, read-out: Conc (solubility in water)): 20 µM (≈ 43.3 µg/mL) | solubility at 3 days ([1]; pH 4.56, pH 4.56, read-out: Conc (solubility in water)): 20 µM (≈ 43.3 µg/mL) | solubility at 3 days ([1]; pH 4.94, pH 4.94, read-out: Conc (solubility in water)): 23 µM (≈ 49.8 µg/mL) | solubility at 3 days ([1]; pH 5.55, pH 5.55, read-out: Conc (solubility in water)): 39 µM (≈ 84.4 µg/mL) | solubility at 3 days ([1]; pH 6.04, pH 6.04, read-out: Conc (solubility in water)): 127 µM (≈ 275 µg/mL) | solubility at 3 days ([1]; pH 6.34, pH 6.34, read-out: Conc (solubility in water)): 226 µM (≈ 489 µg/mL) | solubility at 3 days ([1]; pH 6.89, pH 6.89, read-out: Conc (solubility in water)): 303 µM (≈ 656 µg/mL) | solubility at 3 days ([1]; pH 7.62, pH 7.62, read-out: Conc (solubility in water)): 351 µM (≈ 760 µg/mL) | Ki (human MC4 receptor): 5.4 nM | Ki (MC1 receptor): > 10000 nM

solubility at 3 days ([1]; pH 3.18): 531 µM (≈ 1340 µg/mL) | solubility at 3 days ([1]; pH 4.32): 515 µM (≈ 1300 µg/mL) | solubility at 3 days ([1]; pH 4.67): 492 µM (≈ 1240 µg/mL) | solubility at 3 days ([1]; pH 4.89): 450 µM (≈ 1140 µg/mL) | solubility at 3 days ([1]; pH 4.98): 347 µM (≈ 877 µg/mL) | solubility at 3 days ([1]; pH 5.75): 41 µM (≈ 104 µg/mL) | solubility at 3 days ([1]; pH 6.37): 51 µM (≈ 129 µg/mL) | solubility at 3 days ([1]; pH 6.66): 93 µM (≈ 235 µg/mL) | solubility at 3 days ([1]; pH 7.3): 454 µM (≈ 1150 µg/mL) | solubility at 3 days ([1]; pH 7.66): 596 µM (≈ 1510 µg/mL) | Ki (human MC4 receptor): 2.75 nM | Ki (MC1 receptor): > 10000 nM
SMILES: CCCC[C@H](NC(=O)[C@H](CNC(=O)CN(CC(=O)O)CC(=O)O)NC(=O)[C@H](Cc1c[nH]cn1)NC(=O)[C@H](CCC(N)=O)NC(=O)[C@H](CO)NC(=O)CNC(=O)COCCOCCNC(=O)COCCOCCNC(=O)COCCOCCNC(=O)COCCOCCNC(=O)CCCCCCCCCCCCCCCc1nnn[nH]1)C(=O)N[C@H]1CCC(=O)NCCCC[C@@H](C(N)=O)NC(=O)[C@H](Cc2c[nH]c3ccccc23)NC(=O)[C@H](CCCNC(=N)N)NC(=O)[C@@H](Cc2ccccc2)NC(=O)[C@@H]2C[C@@H](O)CN2C1=O [Example 16, (2-{2-[2-(2-{2-[2-(2-{2-[2-(2-{2-[16-(Tetrazol-5-yl)hexadecanoylamino]ethoxy}ethoxy)acetylamino]ethoxy}ethoxy)acetylamino]ethoxy}ethoxy)acetylamino]ethoxy}ethoxy)acetyl-Gly-Ser-Gln-His-Dap(BCMA)-Nle-c[Glu-Hyp-D-Phe-Arg-Trp-Lys]-NH2] ({Palmitoyl(16-(5-tetrazolyl))-AEEA-AEEA-AEEA-AEEA}-GSQH[Dap](NTA)[Nle]E[Hyp][dF]RWK-NH2; lactam 7-12)

solubility at 3 days ([1]; pH 3.7): 391 µM (≈ 921 µg/mL) | solubility at 3 days ([1]; pH 5.2): 25 µM (≈ 58.9 µg/mL) | solubility at 3 days ([1]; pH 5.96): 78 µM (≈ 184 µg/mL) | solubility at 3 days ([1]; pH 6.56): 249 µM (≈ 587 µg/mL) | solubility at 3 days ([1]; pH 6.73): 342 µM (≈ 806 µg/mL) | solubility at 3 days ([1]; pH 6.95): 382 µM (≈ 900 µg/mL) | solubility at 3 days ([1]; pH 7.07): 485 µM (≈ 1140 µg/mL) | solubility at 3 days ([1]; pH 7.51): 498 µM (≈ 1170 µg/mL) | Ki (human MC4 receptor): 5.35 nM | Ki (MC1 receptor): > 10000 nM
SMILES: CCCC[C@H](NC(=O)[C@H](CNC(=O)CN(CC(=O)O)CC(=O)O)NC(=O)[C@H](Cc1c[nH]cn1)NC(=O)[C@H](CCC(N)=O)NC(=O)[C@H](CO)NC(=O)CNC(=O)COCCOCCNC(=O)COCCOCCNC(=O)CC[C@H](NC(=O)CCCCCCCCCCCCCCCCC(=O)O)C(=O)O)C(=O)N[C@H]1CCC(=O)NCCCC[C@@H](C(N)=O)NC(=O)[C@H](Cc2c[nH]c3ccccc23)NC(=O)[C@H](CCCNC(=N)N)NC(=O)[C@@H](Cc2ccccc2)NC(=O)[C@@H]2C[C@@H](O)CN2C1=O [Example 18, (2-{2-[2-(2-{2-[(S)-4-Carboxy-4-(17-carboxyheptadecanoylamino)butanoylamino]ethoxy}ethoxy)acetylamino]ethoxy}ethoxy)acetyl-Gly-Ser-Gln-His-Dap(BCMA)-Nle-c[Glu-Hyp-D-Phe-Arg-Trp-Lys]-NH2] ({C18 diacid-γGlu-AEEA-AEEA}-GSQH[Dap](NTA)[Nle]E[Hyp][dF]RWK-NH2; lactam 7-12)
